Patent publication US20090012049A1, “Use of an Unsaponifiable Extract of Plant Pulp in the Treatment of Skin Ageing” (priority 2006, published 2009)
Values joined by “and” are separate entries in the source; they are usually repeats but may differ in a detail not shown here. Identical values can stand only once.

What was measured:
[1] = tested on: murine fibroblast line L929; experiment: 3D (DNA Damage Detection) test after H2O2 stress; assay type: cell-based; settings: 3 μg/ml, L929 pre-treated 16 hours, H2O2 100 μM 30 minutes; for % DNA protection: basal control 100%, H2O2 stressed 0%
Description: They decided to generate the lesions to DNA by means of H2O2 stress and to analyze indirectly the damage thereby caused, by analyzing the repair reaction. For that purpose, a kit referred to as the 3D (standing for “DNA Damage Detection”) test was used. This biochemical test mimics, in vitro, the repair reaction by means of excision (Salles B. et al Anal. Biochem. 1995; 232: 37-42 and Salles B. et al Biochimie 1999; 81: 53-58). The 3D test is based on the repairing of DNA lesions using purified human cell extracts.
The products were assessed using the murine fibroblast line L929. The cells are pre-treated with the products (Table III) for 16 hours and are then stimulated with H2O2 (Hydrogen Peroxide 3%—Ref. GIFRER—Laboratoire Gifrer Barbezat) at 100 μM for 30 minutes.
The principle is as follows: After damaging the genomic DNA (oxidative treatment), the cells are lysed. The lysate is deposited on a microplate coated with polylysine: • 1—Adsorption of the DNA • 2—Incubation of the DNA with a protein extract (enriched with repair enzymes) and a pool of nucleotides wherein one nucleotide is labeled with biotin (dUTP-Biotin)—Repair of the lesions and incorporation of the “dUTP-Biotin” labeled nucleotides in the DNA. • 3—Incubation with an “Avidin-Peroxidase” enzyme complex—Recognition by the avidin of the incorporated dUTP-Biotin. • 4—Addition of a luminescent peroxidase substrate and quantification of the emitted signal, which is proportional to the number of repaired lesions.
The test performance protocol is followed in accordance with the instructions of the kit supplier (Solyscel 3D Test—Ref: SFRIDN013— AES Laboratoire). At the end of the reaction, the plate is read in a luminometer (MITHRAS LB940-BERTHOLD).
The ratio below allows the percentage protection against the causation of lesions to DNA by oxidative stress to be calculated for each concentration of product tested (the Intensity of Luminescence—or IL—is an expression of the quantity of DNA lesions).
The values indicated in this Table are percentages of inhibition (or % protection) of lesions to DNA following exogenous oxidative stress, compared to “basal control” cells (100%) and “H2O2 stressed” cells (0%).

[2] = tested on: murine fibroblast line L929; experiment: TBARS test: lipid peroxidation after H2O2-Fe2+/Fe3+ stress; assay type: cell-based; settings: L929 pre-treated 16 hours, H2O2-Fe2+/Fe3+ 1 hour
Protocol: In order to assess membrane degradation, the authors of the invention have measured lipid peroxidation by means of an in vitro assay of complexes formed between the products of lipid oxidation and thiobarbituric acid. These complexes are called TBARS (standing for “Thiobarbituric Acid Reactive Substances”) and give their name to the test: the TBARS Test.
In order to mimic chemical oxidative stress, the fibroblast line L929 was treated with a complex composed of hydrogen peroxide (H2O2) and iron (Fe^2+/Fe^3+), accordingly reproducing Fenton's reaction, a source of OFRs and, more particularly, the free hydroxyl radical (OH^∘) (Vessey D. A. et al J. Invest Dermatol. 1992; 99: 859-63): H2O2+Fe^2+→OH^∘+OH^−+Fe^3+.
The products were assessed using the murine fibroblast line L929. The cells are pre-treated with the various concentrations of products (Table I) for 16 hours and then stimulated with the H2O2—Fe^2+/Fe^3+ complex for 1 hour. The LK0304 batch of unsaponifiable extract of pulp of fruit of the argan tree was prepared in accordance with Example 2.
The peroxidation of membrane lipids is analyzed by TBARS measurement (according to Morliére P. et al Biochim. Biophys. Acta. 1991; 1084: 261-268).
In an acid medium, at 95° C., complexes referred to as TBARS (standing for “ThioBarbituric Acid Reactive Substances”) are formed between the lipid oxidation products (malondialdehyde or MDA) and thiobarbituric acid (TBA), which can be fluorescence-assayed relative to a MDA standard series. The TBARS assay value is then expressed in pmol/μg of proteins. The proteins and TBARS are assayed in the intracellular medium.
Starting from the calculation of the TBARS in pmol/μg of proteins, the protective efficacy of the various products against oxidation of the lipid membranes was calculated as follows.

[3] = at a dose lower than the triterpene fraction A devoid of erythrodiol; cited from earlier work
[4] = compared to the triterpene fraction; cited from earlier work

Row | Compound | % lesions to DNA [1] [%] | Intensity of luminescence [1] | % DNA protection [1] [%] | Protection of membrane lipids in % Mean ([2]; 400 μg/ml-928.7 μM) [%] | Protection of membrane lipids in % Mean ([2]; 400 μg/ml-928.7 μM, listed as Vitamin E) | Protection of membrane lipids in % Mean ([2]; 0.3 μg/ml) | Protection of membrane lipids in % Mean ([2]; 1 μg/ml) [%] | % DNA protection ([1]; listed as erythrodiol) | Toxicity [3] | Benefit with respect to UVA and UVB [4]
1 | C=C(C)[C@@H]1CC[C@]2(C)CC[C@]3(C)[C@H](CC[C@@H]4[C@@]5(C)CC[C@H](O)C(C)(C)[C@@H]5CC[C@]43C)[C@@H]12 [Lupeol] | 58.2 | 9020 | 41.8 |  |  |  |  |  |  | 
2 | Vitamin E [Vit E] |  |  |  | 56.62 | about 56% |  |  |  |  | 
3 | CC1(C)CC[C@]2(CO)CC[C@]3(C)C(=CC[C@@H]4[C@@]5(C)CC[C@H](O)C(C)(C)[C@@H]5CC[C@]43C)[C@@H]2C1 [Erythrodiol] | 1 | 5520 | 99 |  |  | 33% and 33.75% | 38.43 | the most active | toxic | only mediocre benefit
4 | CC1(C)CC[C@]2(C)CC[C@]3(C)C(=CC[C@@H]4[C@@]5(C)CC[C@H](O)C(C)(C)[C@@H]5CC[C@]43C)[C@@H]2C1 [β-Amyrine] | 125.4 | 13133.3 | −25.4 |  |  |  |  |  |  | 
5 | C[C@H]1[C@H](C)CC[C@]2(C)CC[C@]3(C)C(=CC[C@@H]4[C@@]5(C)CC[C@H](O)C(C)(C)[C@@H]5CC[C@]43C)[C@H]12 [α-Amyrine] | 52.4 | 8663.3 | 47.6 |  |  |  |  |  |  | 
